Legend:
[1] = system: TPH; conditions: background statement; cited from earlier work
[2] = carcinoid tumor patients; cited from earlier work
[3] = system: central 5-HT production / CNS functions; conditions: cited from earlier work
[4] = system: jejunal mucosal 5-HT in mice (C57 BL6); assay: Reduction of mucosal 5-HT concentrations (Example C, repeated oral dosing); format: in vivo, mouse; conditions: after three oral doses (first 10 or 50 mg/kg, then two doses of 50 mg/kg) (title), P-value class
[5] = system: jejunal mucosal 5-HT in mice (C57 BL6); assay: Intestinal 5-HT depletion assay (Example B, single 150 mg/kg oral dose); format: in vivo, mouse; conditions: one day after oral administration of a single 150 mg/kg dose, P-value class (ANOVA)
How it was run: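 C57 BL6 mice received one 150 mg/kg oral gavage dose; jejunal mucosa was homogenized in acidic trichloroacetic acid buffer and 5-HT measured by HPLC. Levels normalized to BCA protein, expressed as mean percent reduction versus vehicle ± SEM; ANOVA significance.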

[6] = target: T1, Recombinant human TPH1 (MBP tagged) (Homo sapiens, UniProt P17752); assay: TPH1 in vitro inhibition assay (kinetic fluorescence); format: biochemical; conditions: read-out: TPH1 Range (TPH1 inhibition IC50)
T1 construct: cloning full length human TPH1 cDNA in to a bacterial pMAL-c5E expression vector; made in house; host or cells: E. coli BL21 (DE3)
T1 sequence (P17752 1-444): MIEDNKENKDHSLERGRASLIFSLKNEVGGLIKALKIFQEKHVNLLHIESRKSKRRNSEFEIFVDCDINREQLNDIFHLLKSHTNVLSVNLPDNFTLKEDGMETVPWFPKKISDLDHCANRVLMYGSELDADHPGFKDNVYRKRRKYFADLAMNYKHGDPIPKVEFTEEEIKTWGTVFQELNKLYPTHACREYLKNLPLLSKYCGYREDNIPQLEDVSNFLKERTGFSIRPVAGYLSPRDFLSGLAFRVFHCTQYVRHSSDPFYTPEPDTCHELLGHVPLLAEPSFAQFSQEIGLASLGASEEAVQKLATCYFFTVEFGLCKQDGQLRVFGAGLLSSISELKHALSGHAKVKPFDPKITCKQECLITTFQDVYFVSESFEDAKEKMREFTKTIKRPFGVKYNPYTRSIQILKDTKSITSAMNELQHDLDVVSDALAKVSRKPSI
How it was run: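 Final mix: 15 nM MBP-TPH1, 30 μM Trp, 36 μM 6-methyltetrahydropterin, 25 μM ferrous ammonium sulfate, 50 mM MES pH 7.1, 1% DMSO, room temperature.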

Row | IC50 [6] [nM] | Structure (SMILES) | TPH inhibition (in words) [1] | efficacy against chemotherapy-induced emesis and diarrhea [2] | CNS side effects ([3]; patients and animals) | Efficacy (statistical significance of reduction of mucosal 5-HT concentrations relative to vehicle) [4] | Efficacy (statistical significance of reduction of mucosal 5-HT concentrations relative to vehicle) [5] | effect on central 5-HT production ([3]; in vivo)
1 |  | N[C@@H](Cc1ccc(Cl)cc1)C(=O)O (racemic) [pCPA, p-chlorophenylalanine] | very weak and unselective irreversible inhibitor of TPH | proven effective in treating chemotherapy-induced emesis, as well as diarrhea | linked to the onset of depression and other alterations of CNS functions |  |  | 
2 | < 50 | CCCCc1ccc([C@@H](Oc2cc(N3CCC4(CC3)CN[C@H](C(=O)O)C4)nc(N)n2)C(F)(F)F)c(-n2ccc(C)n2)c1 [Example 12c, (S)-8-(2-amino-6-((R)-1-(4-butyl-2-(3-methyl-1H-pyrazol-1-yl)phenyl)-2,2,2-trifluoroethoxy)pyrimidin-4-yl)-2,8-diazaspiro[4.5]decane-3-carboxylic acid] |  |  |  | *** (*** refers to P<0.005) | *** (*** refers to P<0.005) | 
3 | < 50 | Nc1nc(O[C@H](c2ccc(-c3ccc4ncccc4c3)cc2)C(F)(F)F)cc(N2CCC3(CC2)CN[C@H](C(=O)O)C3)n1 [Example 55bg, (S)-8-(2-amino-6-((R)-2,2,2-trifluoro-1-(4-(quinolin-6-yl)phenyl)ethoxy)pyrimidin-4-yl)-2,8-diazaspiro[4.5]decane-3-carboxylic acid] |  |  |  | *** (*** refers to P<0.005) | *** (*** refers to P<0.005) | 
4 |  | C#Cc1ccc(C[C@H](N)C(=O)O)cc1 [p-Ethynyl phenylalanine] | more selective and more potent TPH inhibitor than pCPA |  |  |  |  | affects central 5-HT production
